# According to US4001237A, “Oxazole, isoxazole, thiazole and isothiazole amides” (priority 1976, dated 1977):
# Test: Clinical use as antihypertensive agent in humans (literature reports)
# Assay type: in vivo, human
# Settings: clinical daily dose ranges 150 to 500 mg. versus 1.5 to 15 mg.
compound,measurement,value
COc1cc2c(N)nc(N3CCN(C(=O)OCC(C)(C)O)CC3)nc2c(OC)c1OC [Trimazosin],weaker than prazosin at the lower end of the clinical daily dosage range,100 fold
